Source: patent US20230374043A1, “Hexadeca Ammonium-Modified Phthalocyanine and Preparation Method and Use Thereof as Photodynamic Drug” (Fuzhou University, priority 2020, published 2023)
Where two headings read alike, the source gives them in different places.

Columns and labels:
[1] = tested on: human liver cancer cells HepG2; experiment: dark toxicity and photodynamic anticancer effect on HepG2 cells (MTT); format: cell-based; settings: for photodynamic anticancer activity: HepG2, after illumination with red light; for photodynamic activity relative to tetrakis-α-(2,4,6-tris(N,N,N-trimethylammonium methyl)-phenoxy)zinc phthalocyanine dodecaiodate: HepG2, under illumination; for dark toxicity on HepG2 cells: without illumination, 2 h incubation
Description: (§1) The dark toxicity and photodynamic anticancer effect of the 2,3-bis[3-(trimethyl ammonium)phenoxy]zinc phthalocyanine diiodate of Example 2, the 1,2,3,4-bis[3-(trimethylammonium)phenoxy]zinc phthalocyanine tetraiodate of Example 4, the octa-β-[3-(trimethylammonium)phenoxy]zinc phthalocyanine octaiodate of Example 6, and the hexadeca-[3-(trimethylammonium)phenoxy]zinc phthalocyanine hexadecaiodate of Example 8 on human liver cancer cells HepG2 were tested, respectively.
The main steps were as follows: the above photosensitive medicaments were separately dissolved in water to obtain 1 mM photosensitizers, and then diluted into a cell medium to prepare cell mediums containing zinc phthalocyanine complexes at different concentrations. The human liver cancer cells HepG2 were cultured in the mediums containing zinc phthalocyanine complexes at different concentrations for 2 h; the medium was discarded; and after washing with PBS, the cells were added into a new medium (without zinc phthalocyanine complexes). Illumination experiment group: the cells were irradiated with red light for 30 min at a power of irradiated light at 15 mW cm^−2 using red light with a wavelength greater than 600 nm as an excitation light source; non-illumination control group: the cells were placed in the dark for 30 min. After illumination or non-illumination, the cell viability was examined by MTT.
(§2) The red light with a wavelength greater than 610 nm was provided by a 500 W halogen lamp connected to an insulated water tank and an optical filter greater than 610 nm.

[2] = tested on: Staphylococcus aureus; experiment: dark toxicity and photodynamic antibacterial effect against Staphylococcus aureus (colony count); format: cell-based; settings: for increase compared with the IC90 value of MB: under illumination; for IC90: 4 h incubation, red light >610 nm, 15 mW cm^-2, 30 min, read-out: IC90 value (concentration required to kill 90% of Staphylococcus aureus); for photodynamic antibacterial activity: after illumination with red light; for dark toxicity on Staphylococcus aureus: without illumination, 4 h in PBS, colony count
Description: as §1, with “antibacterial” for “anticancer”, “2,3-bis[3-(trimethylammonium)phenoxy]zinc” for “2,3-bis[3-(trimethyl ammonium)phenoxy]zinc”, “against Staphylococcus aureus” for “on human liver cancer cells HepG2”, “tested.” for “tested, respectively.”
1 mM of the photosensitive medicament was diluted into PBS to prepare a PBS solutions containing zinc phthalocyanine complexes at different concentrations, and then Staphylococcus aureus was cultured in the PBS solutions containing zinc phthalocyanine complexes at different concentrations for 4 h. Illumination experiment group: the cells were irradiated with red light for 30 min at a power of irradiated light at 15 mW cm^−2 using red light with a wavelength greater than 610 nm as an excitation light source; non-illumination control group: the cells were placed in the dark for 30 min. A treated cell suspension was inoculated on a surface of a Luria-Bertani medium, cultured for 48 h, and the dark toxicity and photodynamic activity of the photosensitive medicament to Staphylococcus aureus were examined by the number of colonies.
as §2

[3] = tested on: liver cancer H22; experiment: small animal live imaging in tumor-bearing (liver cancer H22) mouse model; format: in vivo; settings: tail vein; for time at which tumor fluorescence reached its peak: 0.8 mol·Kg^-1, imaging within 24 h
Description: The 2,3-bis[3-(trimethylammonium)phenoxy]zinc phthalocyanine diiodate of Example 2, the 1,2,3,4-bis[3-(trimethylammonium)phenoxy]zinc phthalocyanine tetraiodate of Example 4, the octa-β-[3-(trimethylammonium)phenoxy]zinc phthalocyanine octaiodate of Example 6, and the hexadeca-[3-(trimethylammonium)phenoxy]zinc phthalocyanine hexadecaiodate of Example 8 each were dissolved in a physiological saline and diluted into solutions to be tested. A tumor-bearing (liver cancer H22) mouse model was established according to a method in the literature (ACS Applied Materials & Interfaces, 2019, 11(40), 36435-36443), 100 μL of each phthalocyanine solution (at an administration dosage: […]) was injected through the tail vein, and small animal live imaging was conducted within the next 24 h.

[4] = tested on: Staphylococcus aureus; settings: comparison value, source not stated, read-out: IC90 value of the commonly used photosensitizer; cited from earlier work
[5] = tested on: subcutaneous tumors; experiment: photodynamic tumor inhibition in KM mice with subcutaneous tumors; format: in vivo
Description: The zinc phthalocyanine complex obtained in Example 8 was dissolved in physiological saline and diluted to form a solution to be tested. […] with subcutaneous tumors were taken, and each drug was divided into 4 groups (a medication+laser group, a medication group, a normal saline group, and a normal saline+laser group), with 5 mice in each group; when the tumor grew to (60-100) mm^3, 100 μL of a phthalocyanine aqueous solution was injected intravenously at a dosage of […]. After 1 h, the mice were anesthetized and irradiated with laser of (685±5) nm (at a light intensity of 9.4 mW cm^−2 for 10 min). The mice were continued to be fed, and observed every other day; a weight of the mice was measured and a long diameter and a short diameter of the mice were measured with a vernier caliper for a total of 14 d.

[6] = tested on: Staphylococcus aureus; experiment: photodynamic antibacterial effect on mice infected with Staphylococcus aureus; format: in vivo; settings: 15 d
Description: A photodynamic antibacterial effect of the hexadeca-[3-(trimethylammonium)phenoxy]zinc phthalocyanine hexadecaiodate of Example 8 was tested on mice infected with Staphylococcus aureus.
0.1 mL of a PBS solution containing Staphylococcus aureus colonies was inoculated subcutaneously on the right abdomen of depilated normal-grade KM female mice (weighed about 20 g), at a cell concentration of (1-2)×10^6 CFU·mL^−1, and the mice could be treated two days after inoculation. 4 groups were set up, namely a hexadeca-[3-(trimethylammonium)phenoxy]zinc phthalocyanine hexadecaiodate+laser group, a hexadeca-[3-(trimethylammonium)phenoxy]zinc phthalocyanine hexadecaiodate group, a blank+laser group, and a blank group. Before treatment, a sterile absorbent pad of a wound dressing was soaked with 100 μL of the phthalocyanine aqueous solution (containing 1% CEL), applied to the wound of the treatment group, and fixed with a zinc oxide tape. The wound dressing was applied for 2 h each time, and then the dressing was changed once, and then continued for another 2 h. The blank group was given normal saline for applying. After 4 h, the illumination group was treated with laser at (685±5) nm (with a light intensity of 9.4 mW·cm^−2 for 5 min). The mice were observed and recorded for 15 d. After 15 d, the tissues at the infected site were excised, ground and extracted with 1 mL of a sterilized PBS to obtain a bacterial suspension, diluted by 50 times, spread on the surface of the corresponding Luria-Bertani medium, with parallelly 3 plates for each concentration, cultured in a 37° C. incubator, and then observed and counted after 24 h.

[7] = ultraviolet-visible absorption spectrum of zinc phthalocyanine complexes in water; format: physicochemical; settings: for maximum absorption wavelength: in water; for state in water judged from Q band (aggregation / monomer): 4 μM, no surfactant
Source text: It was seen from the figure that the Q bands of the zinc phthalocyanine complexes obtained in Examples 1 to 6 in water each were relatively wide and low, showing different degrees of aggregation; while only the Q bands of the zinc phthalocyanine complexes in Examples 7 and 8 in water were strong and sharp peaks.

[8] = Homo sapiens, HepG2, read-out: half maximal inhibitory concentration (IC50)

Compound	photodynamic anticancer activity [1]	photodynamic activity relative to tetrakis-α-(2,4,6-tris(N,N,N-trimethylammonium methyl)-phenoxy)zinc phthalocyanine dodecaiodate [1] [times]	IC50 [1, 8] [nM]	dark toxicity on HepG2 cells ([1]; MTT)	increase compared with the IC90 value of MB ([2]; Staphylococcus aureus) [times]	IC90 ([2]; Staphylococcus aureus) [nM]	photodynamic antibacterial activity [2]	dark toxicity on Staphylococcus aureus [2]	enrichment in organs ([3]; 0.8 mol·Kg^-1)	metabolism in vivo ([3]; 0.8 mol·Kg^-1)	time at which tumor fluorescence reached its peak [3]	accumulation / targeting ability in tumor sites ([3]; 0.8 mol·Kg^-1)	maximum absorption wavelength [7] [nm]	state in water judged from Q band (aggregation / monomer) [7]	further results
C[N+](C)(C)c1cccc(Oc2cc3c(cc2Oc2cccc([N+](C)(C)C)c2)C2=[N+]4C3=Nc3c5ccccc5c5[n]3[Zn@]43[n]4c(c6ccccc6c4=N2)=NC2=[N+]3C(=N5)c3ccccc32)c1 [Example 2, 2,3-bis[3-(trimethylammonium)phenoxy]zinc phthalocyanine diiodate]	high photodynamic anticancer activity	1.23	170	no killing and growth inhibitory effect	69	85	high photodynamic antibacterial activity	no killing and growth inhibitory effect	enriched to varying degrees in organs such as liver and spleen	low metabolism	12 h				
CN(C)c1ccc2nc3ccc(=[N+](C)C)cc-3sc2c1 [MB]															IC90 [4]: 5900 nM
hexadeca-[3-(dimethylammonium)phenoxy]zinc phthalocyanine hexadecaiodate [Example 8]		2.25		no killing and growth inhibitory effect	86			no killing and growth inhibitory effect		rapid metabolism in vivo	2 h	excellent targeting ability	714	monomers	IC50 ([1]; HepG2, 2 h incubation, red light >600 nm, 15 mW cm^-2, 30 min, MTT, read-out: half maximal inhibitory concentration (IC50)): 40 nM; toxicity to mice ([5]; i.v. 0.8 mol·Kg^-1, 14 d): no obvious toxicity; tumor inhibition rate ([5]; medication+laser group, i.v. 0.8 mol·Kg^-1, laser (685±5) nm 9.4 mW cm^-2 10 min after 1 h, 14 d): 98.7%; body weight of the mice in the treatment group ([5]; within 14 d): tendency to increase; appearance of infected skin site ([6]; +laser group): crusted; inhibition rate of Staphylococcus aureus colonies from excised tissue ([6]; +laser group, topical dressing 2x2 h (1% CEL), laser (685±5) nm 9.4 mW·cm^-2 5 min): 98%; appearance of infected skin site ([6]; compound without laser): obvious lumps; IC90 [2]: 69 nM; time until basically scavenged by the body's metabolism ([3]; 0.8 mol·Kg^-1): about 6 h
1,2,3,4,8,9,10,11,15,16,17,18,22,23,24,25-hexadeca[3-(dimethylamino)phenoxy]zinc phthalocyanine complex [Example 7]													727	monomers	
C[N+](C)(C)c1cccc(Oc2cc3c(cc2Oc2cccc([N+](C)(C)C)c2)C2=[N+]4C3=Nc3c5cc(Oc6cccc([N+](C)(C)C)c6)c(Oc6cccc([N+](C)(C)C)c6)cc5c5[n]3[Zn]43[n]4c(c6cc(Oc7cccc([N+](C)(C)C)c7)c(Oc7cccc([N+](C)(C)C)c7)cc6c4=NC4=[N+]3C(=N5)c3cc(Oc5cccc([N+](C)(C)C)c5)c(Oc5cccc([N+](C)(C)C)c5)cc34)=N2)c1 [Example 6, 2,3,9,10,16,17,23,24-octa[3-(trimethylammonium)phenoxy]zinc phthalocyanine octaiodate]		1.50	60	no killing and growth inhibitory effect	83	71		no killing and growth inhibitory effect	enriched to varying degrees in organs such as liver and spleen	low metabolism	about 12 h				
C[N+](C)(C)c1cccc(Oc2c(Oc3cccc([N+](C)(C)C)c3)c(Oc3cccc([N+](C)(C)C)c3)c3c(c2Oc2cccc([N+](C)(C)C)c2)C2=Nc4c5ccccc5c5[n]4[Zn@]46[n]7c(c8ccccc8c7=NC3=[N+]24)=NC2=[N+]6C(=N5)c3ccccc32)c1 [Example 4]	high photodynamic anticancer activity	1.00	210	no killing and growth inhibitory effect	80	74	high photodynamic antibacterial activity	no killing and growth inhibitory effect				poor accumulation ability in tumor sites			
